Drawing on patent US12427144B2, “Compounds and methods for the targeted degradation of androgen receptor” (Arvinas Operations, Inc., priority 2019, dated 2025), this text covers DC50 and Dmax for seven compounds.

In this test the target is T1, Androgen Receptor (AR) (Homo sapiens, UniProt P10275).
T1 construct: endogenous in cells; host or cells: VCaP
T1 sequence (P10275 1-920): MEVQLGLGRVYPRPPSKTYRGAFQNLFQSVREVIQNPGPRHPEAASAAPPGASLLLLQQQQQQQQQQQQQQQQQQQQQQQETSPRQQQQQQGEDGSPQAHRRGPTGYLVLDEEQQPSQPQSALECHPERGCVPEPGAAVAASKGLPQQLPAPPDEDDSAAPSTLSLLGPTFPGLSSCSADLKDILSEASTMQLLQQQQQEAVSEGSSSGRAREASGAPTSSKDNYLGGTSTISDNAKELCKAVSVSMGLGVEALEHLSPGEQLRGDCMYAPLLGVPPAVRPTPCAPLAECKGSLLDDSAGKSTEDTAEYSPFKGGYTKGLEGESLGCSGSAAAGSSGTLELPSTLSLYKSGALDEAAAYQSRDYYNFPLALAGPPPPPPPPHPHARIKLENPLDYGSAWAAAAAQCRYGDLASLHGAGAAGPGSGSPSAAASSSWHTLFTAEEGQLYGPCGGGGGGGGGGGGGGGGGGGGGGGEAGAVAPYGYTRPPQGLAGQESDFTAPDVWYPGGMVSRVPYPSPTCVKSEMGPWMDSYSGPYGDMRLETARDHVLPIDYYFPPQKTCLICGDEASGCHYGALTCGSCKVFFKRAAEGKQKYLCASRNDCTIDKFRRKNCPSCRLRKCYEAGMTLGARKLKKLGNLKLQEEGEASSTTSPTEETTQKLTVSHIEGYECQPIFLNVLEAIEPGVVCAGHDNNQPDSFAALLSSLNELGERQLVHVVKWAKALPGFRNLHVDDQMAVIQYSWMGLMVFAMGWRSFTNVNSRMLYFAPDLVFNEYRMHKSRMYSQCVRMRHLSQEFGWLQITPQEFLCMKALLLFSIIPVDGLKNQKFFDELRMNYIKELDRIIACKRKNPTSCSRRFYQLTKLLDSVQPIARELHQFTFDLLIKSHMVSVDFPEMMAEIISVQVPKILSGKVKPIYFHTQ
Kind of test: AR immunofluorescence staining, high content imager, VCaP cells. In kind it is cell-based. The conditions noted are these: for DC50: AR degradation by immunofluorescence; for Dmax: maximal AR degradation. A digest of the protocol:
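VCaP cells treated with compound, fixed in 4% PFA (8% 2× solution added directly for low-adherence lines), permeabilised with 0.1% Triton X-100 and blocked. Stained overnight at 4° C with anti-AR antibody, then FITC anti-rabbit secondary plus phalloidin and DAPI/Hoechst. Read by high-content imaging.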

Molecules are shown by their SMILES. Some results are limits rather than exact numbers.

One may read the DC50 as the concentration at which degradation of the target reaches its halfway point. A lower DC50 goes with a more potent degrader. One may read the Dmax as the largest share of the target that was removed. A high value points to a fuller loss of target.

Consider `COc1cc(C(=O)NC2CCC(=O)NC2=O)ccc1N1CCN(C[C@H]2CN(c3ccc(C(=O)N[C@H]4C(C)(C)[C@H](Oc5cc(C)c(C#N)c(C)c5)C4(C)C)cc3)CCO2)CC1` (stereo partly drawn) [Compound 56, N-(2,6-dioxopiperidin-3-yl)-3-methoxy-4-(4-{[(2S)-4-(4-{[(1r,3r)-3-(4-cyano-3,5-dimethylphenoxy)-2,2,4,4-tetramethylcyclobutyl]carbamoyl}phenyl)morpholin-2-yl]methyl}piperazin-1-yl)benzamide], for which the 50% degradation concentration (DC50) is below 1 nM and the greatest degradation seen (Dmax) is at least 70%.
In the same order, the values of `COc1cc(O[C@H]2C(C)(C)[C@H](NC(=O)c3ccc(N4CCO[C@@H](CN5CCN(c6ccc(C(=O)NC7CCC(=O)NC7=O)cc6OC)CC5)C4)cc3)C2(C)C)ccc1C#N` (stereo partly drawn) [Compound 57, N-(2,6-dioxopiperidin-3-yl)-3-methoxy-4-(4-{[(2S)-4-(4-{[(1r,3r)-3-(4-cyano-3-methoxyphenoxy)-2,2,4,4-tetramethylcyclobutyl]carbamoyl}phenyl)morpholin-2-yl]methyl}piperazin-1-yl)benzamide] are below 1 nM and at least 70%.
The like results for `COc1cc(O[C@H]2C(C)(C)[C@H](NC(=O)c3ccc(N4CCO[C@@H](CN5CCN(c6ccc(C(=O)NC7CCC(=O)NC7=O)c(OC)c6)CC5)C4)cc3)C2(C)C)ccc1C#N` (stereo partly drawn) [Compound 58, N-(2,6-dioxopiperidin-3-yl)-2-methoxy-4-(4-{[(2S)-4-(4-{[(1r,3r)-3-(4-cyano-3-methoxyphenoxy)-2,2,4,4-tetramethylcyclobutyl]carbamoyl}phenyl)morpholin-2-yl]methyl}piperazin-1-yl)benzamide] were, in that order, below 1 nM and at least 70%.
In the same order, the values of `COc1cc(N2CCN(C[C@H]3CN(c4ccc(C(=O)N[C@H]5C(C)(C)[C@H](Oc6cc(C)c(C#N)c(C)c6)C5(C)C)cc4)CCO3)CC2)ccc1C(=O)NC1CCC(=O)NC1=O` (stereo partly drawn) [Compound 59, N-(2,6-dioxopiperidin-3-yl)-2-methoxy-4-(4-{[(2S)-4-(4-{[(1r,3r)-3-(4-cyano-3,5-dimethylphenoxy)-2,2,4,4-tetramethylcyclobutyl]carbamoyl}phenyl)morpholin-2-yl]methyl}piperazin-1-yl)benzamide] are below 1 nM and at least 70%.
`COc1cc(O[C@H]2C(C)(C)[C@H](NC(=O)c3ccc(N4CCC(CN5CCN(c6ccc(C(=O)NC7CCC(=O)NC7=O)cc6OC)CC5)CC4)cc3)C2(C)C)ccc1C#N` (some centres unmarked) [Compound 60, N-(2,6-dioxopiperidin-3-yl)-3-methoxy-4-(4-{[1-(4-{[(1r,3r)-3-(4-cyano-3-methoxyphenoxy)-2,2,4,4-tetramethylcyclobutyl]carbamoyl}phenyl)piperidin-4-yl]methyl}piperazin-1-yl)benzamide] returned a 50% degradation concentration (DC50) below 1 nM and a Dmax of at least 70%.
In the same order, the values of `Cc1cc(O[C@H]2C(C)(C)[C@H](NC(=O)c3ccc(N4CCOC(CN(C(C)C)[C@H]5C[C@@H](Oc6ccc(F)c(C(=O)N[C@H]7CCC(=O)NC7=O)c6)C5)C4)cc3)C2(C)C)cc(C)c1C#N` (stereo partly drawn) [Compound 61, 4-(2-{[(propan-2-yl)[(1r,3r)-3-(3-{[(3S)-2,6-dioxopiperidin-3-yl]carbamoyl}-4-fluorophenoxy)cyclobutyl]amino]methyl}morpholin-4-yl)-N-[(1r,3r)-3-(4-cyano-3,5-dimethylphenoxy)-2,2,4,4-tetramethylcyclobutyl]benzamide] are below 1 nM and 50 to 70%.
In the same order, the values of `COc1cc(O[C@H]2C(C)(C)[C@H](NC(=O)c3ccc(N4CCOC(CN(C(C)C)[C@H]5C[C@@H](Oc6ccc(F)c(C(=O)N[C@H]7CCC(=O)NC7=O)c6)C5)C4)cc3)C2(C)C)ccc1C#N` (stereo partly drawn) [Compound 62, 4-(2-{[(propan-2-yl)[(1r,3r)-3-(3-{[(3S)-2,6-dioxopiperidin-3-yl]carbamoyl}-4-fluorophenoxy)cyclobutyl]amino]methyl}morpholin-4-yl)-N-[(1r,3r)-3-(4-cyano-3-methoxyphenoxy)-2,2,4,4-tetramethylcyclobutyl]benzamide] are below 1 nM and 50 to 70%.
